Assays:
TYK2 JH2 = biological target: T1, TYK2 JH2 (Homo sapiens, UniProt P29597); assay: TYK2 JH2 binding assay (KINOMEscan KdELECT competitive binding); conditions: TYK2 JH2 domain, DiscoverX KINOMEscan KdELECT (Assay A); read-out: Biochemical TYK2_DiscoverX_JH2_BND_Kd
T1 construct: purchased DiscoverX (KINOMEscan KdELECT service); host or cells: E. coli BL21-derived (T7 phage display) or HEK-293
Summary of the method: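 Test compounds were titrated in 11 three-fold steps against JH2 fragment captured on ligand-loaded magnetic beads, with 1 h incubation at room temperature and DMSO at 0.9%. Eluted kinase was quantified by qPCR, and Kd was fitted from the dose series.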

[1] = system: JAK1/TYK2 pSTAT5 (Tyr694/699) in THP-1 cell line; assay: IFNa-stimulated JAK1/TYK2 pSTAT5 (Tyr694/699) inhibition cellular assay, AlphaLISA; type: cell-based; conditions: Homo sapiens; THP-1 cells, IFNa-stimulated, AlphaLISA (Assay B); read-out: Cellular_THP1_IFNa-pSTATS_TYK2
Summary of the method: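 THP-1 cells (2e4/well in HBSS) were preincubated with compound (8 points, 6-fold steps from 10000 nM final) for 1 h at 37 °C, then stimulated with IFNa (added at 100 ng/mL) for 30 min. Lysate pSTAT5 was read by AlphaLISA at 615 nm. IC50 came from a 4-parameter fit with bottom 0 and Hill −1.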

T1 sequence (P29597 589-875 limits assumed): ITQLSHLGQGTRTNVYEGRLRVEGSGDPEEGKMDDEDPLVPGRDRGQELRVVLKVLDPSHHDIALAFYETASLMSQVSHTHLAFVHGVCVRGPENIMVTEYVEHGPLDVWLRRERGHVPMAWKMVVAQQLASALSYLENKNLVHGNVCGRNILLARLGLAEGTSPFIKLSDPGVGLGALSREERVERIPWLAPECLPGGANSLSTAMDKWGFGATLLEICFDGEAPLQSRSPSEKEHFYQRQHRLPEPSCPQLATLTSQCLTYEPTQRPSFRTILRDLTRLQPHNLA

Row | Compound | Kd (TYK2 JH2) [nM] | IC50 [1] [nM]
1 | CCC(=O)Nc1cc2c(-c3nc4ccccc4o3)cnc(NC)c2cn1 [Example 428, N-(5-(benzo[d]oxazol-2-yl)-8-(methylamino)-2,7-naphthyridin-3-yl)propionamide] | ≤ 100 | ≤ 500
2 | CNc1ncc(-c2nc3ccccc3o2)c2cc(NC(=O)C(C)C)ncc12 [Example 429, N-(5-(benzo[d]oxazol-2-yl)-8-(methylamino)-2,7-naphthyridin-3-yl)isobutyramide] | ≤ 100 | > 500
3 | [2H]C([2H])([2H])Nc1ncc(-c2nc3ccccc3o2)c2cc(NC(C)=O)ncc12 [Example 431, N-(5-(benzo[d]oxazol-2-yl)-8-((methyl-d3)amino)-2,7-naphthyridin-3-yl)acetamide] | ≤ 100 | ≤ 500
4 | [2H]C([2H])([2H])Nc1ncc(-c2nc3ccccc3o2)c2cc(NC(=O)C([2H])([2H])[2H])ncc12 [Example 432, N-(5-(benzo[d]oxazol-2-yl)-8-((methyl-d3)amino)-2,7-naphthyridin-3-yl)acetamide-2,2,2-d3] | ≤ 100 | ≤ 500
5 | [2H]C([2H])([2H])Nc1ncc(-c2nc3cc(OC)ccc3o2)c2cc(NC(=O)[C@@H]3C[C@@H]3F)ncc12 [Example 435, (1S,2S)-2-fluoro-N-(5-(5-methoxybenzo[d]oxazol-2-yl)-8-((methyl-d3)amino)-2,7-naphthyridin-3-yl)cyclopropane-1-carboxamide] | ≤ 100 | ≤ 500
6 | [2H]C([2H])([2H])Nc1ncc(-c2nc3cc(OC([2H])([2H])[2H])ccc3o2)c2cc(NC(=O)[C@H]3C[C@H]3C)ncc12 [Example 439, (1S,2R)—N-(5-(5-(methoxy-d3)benzo[d]oxazol-2-yl)-8-((methyl-d3)amino)-2,7-naphthyridin-3-yl)-2-methylcyclopropane-1-carboxamide] | ≤ 100 | ≤ 500
7 | [2H]C([2H])([2H])Nc1ncc(-c2nc3cc(N4CCO[C@@H](C)C4)ccc3o2)c2cc(NC(=O)[C@H]3C[C@H]3C)ncc12 [Example 440, (1S,2R)-2-methyl-N-(8-((methyl-d3)amino)-5-(5-((S)-2-methylmorpholino)benzo[d]oxazol-2-yl)-2,7-naphthyridin-3-yl)cyclopropane-1-carboxamide] | ≤ 100 | ≤ 500
8 | [2H]C([2H])([2H])Nc1ncc(-c2nc3cc(N4CCO[C@H](C)C4)ccc3o2)c2cc(NC(=O)[C@H]3C[C@H]3C)ncc12 [Example 441, (1S,2R)-2-methyl-N-(8-((methyl-d3)amino)-5-(5-((R)-2-methylmorpholino)benzo[d]oxazol-2-yl)-2,7-naphthyridin-3-yl)cyclopropane-1-carboxamide] | ≤ 100 | ≤ 500
9 | [2H]C([2H])([2H])Nc1ncc(-c2nc3cc(N4CCOCC4)ccc3o2)c2cc(NC(=O)C3(F)CC3)ncc12 [Example 442, 1-fluoro-N-(8-((methyl-d3)amino)-5-(5-morpholinobenzo[d]oxazol-2-yl)-2,7-naphthyridin-3-yl)cyclopropane-1-carboxamide] | ≤ 100 | ≤ 500
10 | [2H]C([2H])([2H])Nc1ncc(-c2nc3cc(N4CCOCC4)ccc3o2)c2cc(NC(=O)[C@H]3C[C@H]3C)ncc12 [Example 443, (1S,2R)-2-methyl-N-(8-((methyl-d3)amino)-5-(5-morpholinobenzo[d]oxazol-2-yl)-2,7-naphthyridin-3-yl)cyclopropane-1-carboxamide] | ≤ 100 | ≤ 500
11 | CNc1ncc(-c2nc3c(NC(C)=O)cccc3o2)c2cc(NC(=O)C3CC3)ncc12 [Example 444, N-(5-(4-acetamidobenzo[d]oxazol-2-yl)-8-(methylamino)-2,7-naphthyridin-3-yl)cyclopropanecarboxamide] | ≤ 100 | ≤ 500
12 | CNc1ncc(-c2nc3cc(-c4nc[nH]n4)ccc3o2)c2cc(NC(=O)C3CC3)ncc12 [Example 445, N-(5-(5-(1H-1,2,4-triazol-3-yl)benzo[d]oxazol-2-yl)-8-(methylamino)-2,7-naphthyridin-3-yl)cyclopropanecarboxamide] | ≤ 100 | ≤ 500
13 | CNc1ncc(-c2nc3cc(-n4c(=O)ccn4C)ccc3o2)c2cc(NC(=O)C3CC3)ncc12 [Example 446, N-(5-(5-(2-methyl-5-oxo-2,5-dihydro-1H-pyrazol-1-yl)benzo[d]oxazol-2-yl)-8-(methylamino)-2,7-naphthyridin-3-yl)cyclopropanecarboxamide] | ≤ 100 | > 500
14 | CNc1ncc(-c2nc3cc(N4CC5COCC(C4)N5C)ccc3o2)c2cc(NC(=O)C3CC3)ncc12 [Example 447, N-(5-(5-(9-methyl-3-oxa-7,9-diazabicyclo[3.3.1]nonan-7-yl)benzo[d]oxazol-2-yl)-8-(methylamino)-2,7-naphthyridin-3-yl)cyclopropanecarboxamide] | ≤ 100 | ≤ 500
15 | CNc1ncc(-c2nc3cc(C4CCOCC4)ccc3o2)c2cc(NC(=O)C3CC3)ncc12 [Example 448, N-(8-(methylamino)-5-(5-(tetrahydro-2H-pyran-4-yl)benzo[d]oxazol-2-yl)-2,7-naphthyridin-3-yl)cyclopropanecarboxamide] | ≤ 100 | ≤ 500
16 | CNc1ncc(-c2nc3cc(N4CCOCC4)ccc3o2)c2cc(Nc3cc(C)nc(C)n3)ncc12 [Example 449, N^6-(2,6-dimethylpyrimidin-4-yl)-N^1-methyl-4-(5-morpholinobenzo[d]oxazol-2-yl)-2,7-naphthyridine-1,6-diamine] | ≤ 100 | ≤ 500
17 | CNc1ncc(-c2nc3cc(N4CCOCC4)ccc3o2)c2cc(NC(=O)NC3CC3)ncc12 [Example 450, 1-cyclopropyl-3-(8-(methylamino)-5-(5-morpholinobenzo[d]oxazol-2-yl)-2,7-naphthyridin-3-yl)urea] | ≤ 100 | ≤ 500
18 | [2H]C([2H])([2H])Nc1ncc(-c2nc3cc(N4C5CCC4COC5)ccc3o2)c2cc(NC(=O)C3CC3)ncc12 [Example 453, N-(5-(5-(3-oxa-8-azabicyclo[3.2.1]octan-8-yl)benzo[d]oxazol-2-yl)-8-((methyl-d3)amino)-2,7-naphthyridin-3-yl)cyclopropanecarboxamide] | ≤ 100 | ≤ 500
19 | [2H]C([2H])([2H])Nc1ncc(-c2nc3cc(OCC4CC4)ccc3o2)c2cc(NC(=O)C3CC3)ncc12 [Example 454, N-(5-(5-(cyclopropylmethoxy)benzo[d]oxazol-2-yl)-8-((methyl-d3)amino)-2,7-naphthyridin-3-yl)cyclopropanecarboxamide] | ≤ 100 | ≤ 500
20 | [2H]C([2H])([2H])Nc1ncc(-c2nc3cc(N4C5CCC4COC5)ccc3o2)c2cc(NC(=O)[C@H]3C[C@H]3C)ncc12 [Example 455, (1S,2R)—N-(5-(5-(3-oxa-8-azabicyclo[3.2.1]octan-8-yl)benzo[d]oxazol-2-yl)-8-((methyl-d3)amino)-2,7-naphthyridin-3-yl)-2-methylcyclopropane-1-carboxamide] | ≤ 100 | ≤ 500
21 | [2H]C([2H])([2H])Nc1ncc(-c2nc3cc(OCC4CC4)ccc3o2)c2cc(NC(=O)[C@H]3C[C@H]3C)ncc12 [Example 456, (1S,2R)—N-(5-(5-(cyclopropylmethoxy)benzo[d]oxazol-2-yl)-8-((methyl-d3)amino)-2,7-naphthyridin-3-yl)-2-methylcyclopropane-1-carboxamide] | ≤ 100 | ≤ 500
22 | CCNc1ncc(-c2nc3cc(N4CC5CN(C)CC(C4)O5)ccc3o2)c2cc(NC(=O)C3CC3)ncc12 [Example 457, N-(8-(ethylamino)-5-(5-(7-methyl-9-oxa-3,7-diazabicyclo[3.3.1]nonan-3-yl)benzo[d]oxazol-2-yl)-2,7-naphthyridin-3-yl)cyclopropanecarboxamide] | ≤ 100 | ≤ 500
23 | CCNc1ncc(-c2nc3cc(N4CCOCC4)ccc3o2)c2cc(NC(=O)C3CC3)ncc12 [Example 458, N-(8-(ethylamino)-5-(5-morpholinobenzo[d]oxazol-2-yl)-2,7-naphthyridin-3-yl)cyclopropanecarboxamide] | ≤ 100 | ≤ 500
24 | CCNc1ncc(-c2nc3cc(OC)ccc3o2)c2cc(NC(=O)C3CC3)ncc12 [Example 459, N-(8-(ethylamino)-5-(5-methoxybenzo[d]oxazol-2-yl)-2,7-naphthyridin-3-yl)cyclopropanecarboxamide] | ≤ 100 | ≤ 500
25 | CNc1ncc(-c2nc3nc(C)ccc3o2)c2cc(NC(=O)C3CC3)ncc12 [Example 460, N-(8-(methylamino)-5-(5-methyloxazolo[4,5-b]pyridin-2-yl)-2,7-naphthyridin-3-yl)cyclopropanecarboxamide] | ≤ 100 | ≤ 500
26 | CNc1ncc(-c2nc3cc(/C(C)=N\OC)ccc3o2)c2cc(NC(=O)C3CC3)ncc12 [Example 462, (Z)—N-(5-(5-(1-(methoxyimino)ethyl)benzo[d]oxazol-2-yl)-8-(methylamino)-2,7-naphthyridin-3-yl)cyclopropanecarboxamide] | ≤ 100 | ≤ 500
27 | CNc1ncc(-c2nc3cc(/C(C)=N/OC)ccc3o2)c2cc(NC(=O)C3CC3)ncc12 [Example 463, (E)-N-(5-(5-(1-(methoxyimino)ethyl)benzo[d]oxazol-2-yl)-8-(methylamino)-2,7-naphthyridin-3-yl)cyclopropanecarboxamide] | ≤ 100 | ≤ 500

— US20240025906A1 (NEURON23, INC., priority 2022, published 2024)
